Data reported in patent publication US12162935B2, “Regimens, compositions and methods with capsaicin and TNF-alpha inhibitor” (priority 2018, dated 2024).

What was measured:
[1] = 25 mg ETA twice a week for 24 weeks; Matteson et al.; cited from earlier work
[2] = tested on: Wistar rats; assay: ABR threshold shifts, noise induced hearing loss (NIHL); assay type: in vivo, rat
Experimental: Male Wistar rats (150-250 gm) were used for this study under an animal care protocol approved by the Laboratory and Animal Care and Use Committee (SIU School of Medicine). Pre-treatment ABRs were performed. Animals were then treated according to the experimental paradigm. Prevention strategy: consisted of administration of ETA either intra-tympanic ally (IT) (250 μg/50 μl) or subcutaneously (sc) (3 mg/kg) or PBS (IT-50 μl or sc-1 ml) either 3 days or 7 days prior to noise exposure (NE).
Animals were exposed to noise (NE), and then provided ETA treatments either IT or SC at either 2 h or 24 h post noise injury. Post treatment ABR thresholds were determined at 21 days post noise exposure and cochleae were excised for morphological, molecular and biochemical studies. Cochleae used for RNA preparations were flushed immediately with RNA later and kept in RNA later for 24 h at 4° C. Those used for immunohistochemical studies were perfused and fixed with 4% paraformaldehyde, while those used for Scanning electron microscopy (SEM) were perfused and fixed with 2.5% glutaraldehyde. Cochleae used for whole mounts were decalcified for 7-10 days in 100 mM EDTA at room temperature.
Male Wistar rats were exposed to octave band noise at 122 dB centered at 16 kHz for 1 h under isofluorane anesthesia, with the 3 inch silicon tubes attached to the high frequency transducer resting in the middle ear cavity. This exposure typically results in a 30-50 dB temporary threshold shift (measured as an immediate pre-to-post noise exposure shift in ABR thresholds) across all frequencies; with slightly more elevation at those frequencies around 16 kHz and 20-40 dB permanent threshold shift measured at 21 days post noise exposure at all frequencies. Acoustic stimuli are calibrated using a cloth model rat and a Bruel & Kjaer Pulse System with a ½ inch free-field microphone (B&K model 4191). Baseline noise levels in the test chamber (with background test noise turned off) are typically measured below 20 dB SPL in the 4-40 kHz range.
Pre-treatment ABR thresholds were determined using the high frequency Intelligent Hearing Systems (IHS) on naive rats prior to any treatment or noise exposure for each ear. Animals were tested with a stimulus intensity series that was initiated at 0 dB sound pressure level (SPL) and reached a maximum at 90 dB SPL. The stimulus intensity levels were increased in 10 dB increments, and the evoked ABR waveforms were observed on a video monitor. The auditory stimuli included tone bursts at 8, 16, and 32 kHz with a 10 msec plateau and a 1 msec rise/fall time presented at a rate of 5/sec. Threshold was defined as the lowest intensity capable of evoking a reproducible, visually detectable response with two distinct waveforms and minimum amplitude of 0.5 μV.
Preconditioning of the TRPV1 receptor in the rat cochlea by oral administration of capsaicin is shown here to protect from NIHL. Male Wistar rats weighing 200-250 gms were used. ABRs from naïve rats were recorded. Rats were then treated with oral phosphate buffered saline (PBS—1 ml) or capsaicin (1 ml of 20 mg/ml) starting 24 hrs prior to NE, on the day of NE, and 24 hrs post NE. The final ABRs were recorded 21 days post NE. Cochleae were collected for various biochemical tests and immunohistochemistry. At least 6 animals were used per treatment group. NE caused an ABR threshold shift of 21.6±1.7, 35.5±1.9 and 43.9±2.3 dB threshold shift at 8, 16 and 32 kHz respectively. Oral capsaicin treatment completely protects from NIHL (3.9±1.4, 6.1±1.8 and 8.9±2.1 dB threshold shift at 8, 16 and 32 kHz respectively), there is no significant change in ABR threshold shift compared to control. […] Statistical significance was calculated using one way ANOVA with Tukey's post-hoc analyses, p<0.05 (FIG. 16.A.).
ABR measurements were conducted in naïve male Wistar rats. […]

[3] = tested on: rat cochlea; assay: Cochlear gene expression by qPCR after noise exposure; assay type: in vivo
Experimental: Cochleae were pared down to the bone, crushed in liquid nitrogen followed by extraction in 500 μl of TRI reagent. 0.1 ml of chloroform was added, and the tube was shaken vigorously for 15 seconds and centrifuged at 12,000×g for 15 min. RNA was extracted by washing the pellet with 0.5 ml ice-cold isopropanol followed by cold 75% treated ethanol. The ethanol was removed and the tube was air dried briefly. The RNA pellet was resuspended in nuclease free water and RNA levels were determined using optical density readings corresponding to wavelengths of 260 nm, 280 and 320 nm using a spectrophotometer (Eppendorf BioPhotometer, Hamburg, Germany).
500 ng of total RNA was converted to cDNA using iScript cDNA Synthesis Kit (Bio-Rad, Hercules, CA). The reaction mixture was set up as follows: Ing of total RNA, 4 μl of iScript reaction mix, 1 μl of iScript reverse transcriptase, nuclease free water to bring the total volume to 20 μl. The reaction mix was incubated at 25° C. for 5 min, 42° C. for 30 minutes and 85° C. for 5 minutes. This cDNA reaction mix was used for real time PCR, as described previously [Mukherjea et al., 2006]. Gene specific primer pairs were used for the various reactions and mRNA expression levels were normalized to the levels of GAPDH. The primer sets were purchased from Sigma Genosys (St. Louis, MO), and were as follows: […]

[4] = tested on: Wistar rats; assay: Restoration of hearing after permanent threshold shifts (Example 10B); assay type: in vivo, rat; details: treatment after PTS at 4 weeks; oral capsaicin 5 mg/kg 3 days, ETA 1 mg/kg s.c. day 2, three weeks
Experimental: FIG. 23A is a schematic showing the experimental paradigm used in Example 10B. Pre-treatment baseline ABRs were performed in naïve male Wistar rats. The rats were then used either as sham controls (no noise exposure) or exposed-noise (122 dB, OBN centered at 16 kHz for 1 hour). Post noise exposure ABRs were repeated at 4 weeks to establish permanent threshold shifts (PTS). […] Final ABR threshold values were evaluated at week 9 post noise exposure.
Values shown in FIGS. 23A-23C and otherwise provided with respect to this Example 10B are expressed as the mean±SEM. Statistical significance was analyzed using the ANOVA and Tukey's host hoc analysis.

[5] = TT ETA rescue at 24 hours post NE
[6] = TT ETA rescue within 2 hours post NE
[7] = TT-ETA 250 μg/50 μl, 3 day pre-treatment, 21 days post NE
[8] = s.c. ETA rescue at 24 hours post NE
[9] = s.c. ETA rescue within 2 hours post NE
[10] = subcutaneous ETA 3 mg/kg, 3 day pre-treatment, 21 days post NE

etanercept
side effects [1]: no side effects | increase in hearing threshold (hearing loss) ([2]; ETA pre-treatment sc or TT, 3 or 7 days prior to NE (FIG. 17.A)): 5-10 dB | threshold shifts ([2]; TT ETA at 2 h post NE (FIG. 17.B)): 20-37.5 dB | ABR threshold shift at 8 kHz [2, 5]: 22.5±2.9 dB | ABR threshold shift at 16 kHz [2, 5]: 31.25±3.2 dB | ABR threshold shift at 32 kHz [2, 5]: 37.5±3.7 dB | ABR threshold shift at 8 kHz [2, 6]: 20±2.6 dB | ABR threshold shift at 16 kHz [2, 6]: 30±2.7 dB | ABR threshold shift at 32 kHz [2, 6]: 33.75±2.7 dB | ABR threshold shift at 8 kHz ([2]; TT ETA, 7 day pretreatment): 16.25±3.25 dB | ABR threshold shift at 16 kHz ([2]; TT ETA, 7 day pretreatment): 16.25±3.75 dB | ABR threshold shift at 32 kHz ([2]; TT ETA, 7 day pretreatment): 16.25±4.6 dB | ABR threshold shift at 8 kHz [2, 7]: 1.25±1.25 dB | ABR threshold shift at 16 kHz [2, 7]: 0 dB | ABR threshold shift at 32 kHz [2, 7]: 3.75±1.8 dB | Wave 1 amplitude versus sound intensity ([2]; capsaicin 5 mg/kg oral, ETA 1 mg/kg, noise exposure (FIG. 18.B)): partial restoration | ABR threshold shift at 8 kHz ([2]; s.c ETA, 7 day pretreatment): 12.5±3.6 dB | ABR threshold shift at 16 kHz ([2]; s.c ETA, 7 day pretreatment): 15±5 dB | ABR threshold shift at 32 kHz ([2]; s.c ETA, 7 day pretreatment): 16.25±5.3 dB | ABR threshold shift at 8 kHz [2, 8]: 21.25±3.9 dB | ABR threshold shift at 16 kHz [2, 8]: 22.5±4.9 dB | ABR threshold shift at 32 kHz [2, 8]: 26.25±5.6 dB | ABR threshold shift at 8 kHz [2, 9]: 9.16±2.6 dB | ABR threshold shift at 16 kHz [2, 9]: 15.8±4.5 dB | ABR threshold shift at 32 kHz [2, 9]: 20.8±6.0 dB | ABR threshold shift at 8 kHz [2, 10]: 4±1.6 dB | ABR threshold shift at 16 kHz [2, 10]: 8±2.5 dB | ABR threshold shift at 32 kHz [2, 10]: 11±18 dB | threshold shift ([2]; subcutaneous ETA at 2 h post NE (FIG. 17.B)): 10-25 dB | TRPV1, TNF-α and COX2 expression ([3]; ETA rescue by TT injection at 24 hours): unable to decrease the TRPV1, TNF-α and COX2 to basal levels | NE induced up regulation of TRPV1, TNF-α, NOX3, COX2, iNOS and Bax ([3]; pretreatment with ETA): prevents the NE induced up regulation | average hearing threshold shifts at 9 weeks [4]: 25-38 dB
